One assay addresses T1, FLT3 kinase (Homo sapiens, UniProt P36888).
T1 construct: made in house; host or cells: T7 phage display or HEK-293 cells
T1 sequence (P36888 27-993): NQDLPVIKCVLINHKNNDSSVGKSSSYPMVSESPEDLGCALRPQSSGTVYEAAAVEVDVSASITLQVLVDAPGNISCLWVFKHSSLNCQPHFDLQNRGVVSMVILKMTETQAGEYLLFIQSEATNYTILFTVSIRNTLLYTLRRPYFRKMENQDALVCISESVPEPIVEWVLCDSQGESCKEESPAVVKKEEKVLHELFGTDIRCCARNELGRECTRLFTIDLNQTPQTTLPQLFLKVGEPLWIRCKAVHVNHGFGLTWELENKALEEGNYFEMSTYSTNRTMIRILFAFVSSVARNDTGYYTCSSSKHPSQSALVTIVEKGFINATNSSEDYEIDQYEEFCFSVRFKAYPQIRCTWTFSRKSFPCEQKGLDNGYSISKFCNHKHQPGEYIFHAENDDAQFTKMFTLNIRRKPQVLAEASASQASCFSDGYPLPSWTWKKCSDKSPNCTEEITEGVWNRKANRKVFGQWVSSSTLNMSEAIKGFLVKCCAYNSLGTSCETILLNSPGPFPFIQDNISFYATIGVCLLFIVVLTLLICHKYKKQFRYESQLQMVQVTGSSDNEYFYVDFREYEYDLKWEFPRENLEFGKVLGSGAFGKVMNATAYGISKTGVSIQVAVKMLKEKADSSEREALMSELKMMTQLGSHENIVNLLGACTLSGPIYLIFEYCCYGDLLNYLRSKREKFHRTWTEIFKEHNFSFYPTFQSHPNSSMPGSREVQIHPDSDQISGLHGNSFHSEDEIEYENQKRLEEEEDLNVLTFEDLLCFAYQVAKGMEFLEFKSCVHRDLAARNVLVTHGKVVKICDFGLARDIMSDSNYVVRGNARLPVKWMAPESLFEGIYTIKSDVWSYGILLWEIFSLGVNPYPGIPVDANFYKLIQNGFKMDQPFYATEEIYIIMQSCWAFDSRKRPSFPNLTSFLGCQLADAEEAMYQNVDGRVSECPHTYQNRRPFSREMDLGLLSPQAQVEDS
The assay can be described thus: Competition binding assay, FLT3 Kd. The method, boiled down: (§1)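 Kinases, either T7 phage fusions or HEK-293-expressed and DNA-tagged, competed for immobilised biotinylated affinity ligand against test compound, 1 h at RT in binding buffer with 6 mM DTT. Bound kinase eluted with 0.5 μM free ligand and quantified by qPCR; Kd from 11-point threefold dilutions.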

In a further assay the target is T2, KIT kinase (Homo sapiens, UniProt P10721).
T2 construct: made in house; host or cells: T7 phage display or HEK-293 cells
The assay can be described thus: Competition binding assay, KIT Kd. The method in brief: as §1

The next assay deals with T3, CSF-1R kinase (Homo sapiens, UniProt P07333).
T3 construct: made in house; host or cells: T7 phage display or HEK-293 cells
The assay can be described thus: Competition binding assay, CSF-1R Kd. The method, boiled down:
as §1

Another assay deals with MV4-11 cells. The assay can be described thus: MV4-11 cell proliferation assay (Alamar Blue). The assay is classed as cell-based. Particulars: Homo sapiens, MV4-11, 72 h, 3 days incubation. The method, boiled down: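 Viability readout: Alamar Blue fluorescence, ex 560/em 590 nm, 3 h after reagent addition, after 3-day exposure of 64,000 MV4-11 cells per well to a 9-point half-log compound series in 0.5% FBS Iscove's. IC50 from duplicate averages, as 50% proliferation inhibition relative to negative control.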

Assay [1] addresses kinase panel containing either 359 or 386 distinct kinases. The assay can be described thus: Selectivity score S10 from competition binding against a panel of kinases. The following applies: compounds at 10 μM; panel of 386 distinct kinases. The method, boiled down: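 Compounds were tested at 10 μM in competition binding against T7 phage-fused or HEK-293-expressed DNA-tagged kinases with immobilized affinity ligands, 1 h at room temperature. Bound kinase was quantified by qPCR as percent of DMSO control; S10 is the fraction of distinct kinases (mutants excluded) with POC below 10.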

Bounds are passed on as bounds.

T3 sequence (P07333 20-972): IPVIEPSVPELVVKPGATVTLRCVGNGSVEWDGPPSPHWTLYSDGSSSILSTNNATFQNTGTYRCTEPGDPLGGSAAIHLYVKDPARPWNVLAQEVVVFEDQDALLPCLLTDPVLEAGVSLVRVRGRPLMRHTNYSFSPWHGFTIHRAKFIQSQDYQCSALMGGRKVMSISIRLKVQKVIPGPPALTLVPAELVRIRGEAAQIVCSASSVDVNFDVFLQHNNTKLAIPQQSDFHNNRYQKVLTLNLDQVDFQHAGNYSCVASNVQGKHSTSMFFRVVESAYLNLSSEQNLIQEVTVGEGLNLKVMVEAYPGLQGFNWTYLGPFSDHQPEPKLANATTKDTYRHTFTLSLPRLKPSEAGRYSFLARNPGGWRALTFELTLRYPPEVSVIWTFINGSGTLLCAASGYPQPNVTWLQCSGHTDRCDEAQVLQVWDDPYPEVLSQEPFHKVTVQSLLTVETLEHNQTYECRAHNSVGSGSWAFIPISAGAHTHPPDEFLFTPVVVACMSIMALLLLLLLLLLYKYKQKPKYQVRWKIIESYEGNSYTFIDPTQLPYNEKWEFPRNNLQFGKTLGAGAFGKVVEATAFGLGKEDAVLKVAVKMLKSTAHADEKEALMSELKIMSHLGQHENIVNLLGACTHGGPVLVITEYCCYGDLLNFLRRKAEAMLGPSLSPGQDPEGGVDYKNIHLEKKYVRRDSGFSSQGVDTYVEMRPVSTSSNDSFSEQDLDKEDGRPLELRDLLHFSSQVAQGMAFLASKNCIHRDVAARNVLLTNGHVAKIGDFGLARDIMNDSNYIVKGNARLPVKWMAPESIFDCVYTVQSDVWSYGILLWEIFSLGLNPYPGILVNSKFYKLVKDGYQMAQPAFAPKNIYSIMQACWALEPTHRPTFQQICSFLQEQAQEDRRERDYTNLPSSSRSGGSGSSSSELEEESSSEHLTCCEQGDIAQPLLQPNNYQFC
T2 sequence (P10721 26-976): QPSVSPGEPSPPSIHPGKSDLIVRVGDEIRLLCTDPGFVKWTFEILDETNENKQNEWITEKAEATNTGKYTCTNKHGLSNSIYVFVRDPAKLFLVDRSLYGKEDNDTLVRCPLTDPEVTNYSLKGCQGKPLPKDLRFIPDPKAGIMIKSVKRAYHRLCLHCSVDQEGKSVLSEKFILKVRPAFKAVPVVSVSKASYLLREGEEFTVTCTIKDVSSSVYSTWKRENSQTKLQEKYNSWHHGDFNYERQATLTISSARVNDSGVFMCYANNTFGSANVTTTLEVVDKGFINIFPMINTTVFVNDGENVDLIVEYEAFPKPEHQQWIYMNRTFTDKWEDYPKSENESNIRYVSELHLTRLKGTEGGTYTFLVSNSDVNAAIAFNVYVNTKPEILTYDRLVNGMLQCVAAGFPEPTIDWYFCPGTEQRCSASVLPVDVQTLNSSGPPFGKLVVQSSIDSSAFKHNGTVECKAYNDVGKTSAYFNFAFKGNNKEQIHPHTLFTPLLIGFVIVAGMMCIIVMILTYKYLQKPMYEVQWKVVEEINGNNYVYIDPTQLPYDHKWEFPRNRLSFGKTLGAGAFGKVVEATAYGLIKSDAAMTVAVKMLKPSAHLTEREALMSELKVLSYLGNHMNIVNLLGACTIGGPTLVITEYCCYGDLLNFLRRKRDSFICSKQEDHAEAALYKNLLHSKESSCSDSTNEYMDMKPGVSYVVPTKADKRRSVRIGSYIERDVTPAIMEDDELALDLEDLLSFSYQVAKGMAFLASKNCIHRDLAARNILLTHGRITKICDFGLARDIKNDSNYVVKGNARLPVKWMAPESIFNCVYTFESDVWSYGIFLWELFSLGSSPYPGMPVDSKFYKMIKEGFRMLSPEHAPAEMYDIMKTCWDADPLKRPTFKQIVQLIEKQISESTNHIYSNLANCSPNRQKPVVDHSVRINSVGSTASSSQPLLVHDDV

As to `CC(C)(CF)c1cc(NC(=O)Nc2ccc(-c3ccc(N)nc3)cc2)on1` [Example 97, 1-(4-(6-aminopyridin-3-yl)phenyl)-3-(3-(1-fluoro-2-methylpropan-2-yl)isoxazol-5-yl)urea], the Kd is 1 to 10 nM on FLT3 kinase, 1 to 10 nM on KIT kinase and at most 10 nM on CSF-1R kinase. This molecule also registered an IC50 with MV4-11 cells of 1 to 10 nM. The “Kinase specificty: S(10)-386 panel” value in assay [1] was “A (A≦0.1)”.
In the case of `CC1(c2cc(NC(=O)Nc3ccc(-c4ccc(N)nc4)cc3)no2)COC1.CS(=O)(=O)O` [Example 98, 5-(4-(3-(5-(3-methyloxetan-3-yl)isoxazol-3-yl)ureido)phenyl)pyridin-2-aminium methanesulfonate], the Kd at FLT3 kinase was 1 to 10 nM; on KIT kinase, 1 to 10 nM; on CSF-1R kinase it was at most 10 nM. In the assay on MV4-11 cells, this molecule showed an IC50 of 10 to 100 nM. In addition, in assay [1], the “Kinase specificty: S(10)-386 panel” value is recorded as “A (A≦0.1)”.
In the case of `CC1(c2cc(NC(=O)Cc3ccc(-c4ccc(N)nc4)cc3)no2)COC1.CS(=O)(=O)O` [Example 99, 5-(4-(2-((5-(3-methyloxetan-3-yl)isoxazol-3-yl)amino)-2-oxoethyl)phenyl)pyridin-2-aminium methanesulfonate], the Kd was at most 1 nM on FLT3 kinase, 1 to 10 nM on KIT kinase and at most 10 nM at CSF-1R kinase. Also, the IC50 in the assay on MV4-11 cells fell in the range of 1 to 10 nM. The “Kinase specificty: S(10)-386 panel” value in assay [1] is recorded as “A (A≦0.1)”.
For `CC1(c2cc(NC(=O)Cc3ccc(-c4ccc(N)nc4)cc3)no2)CC1.CS(=O)(=O)O` [Example 100, 5-(4-(2-(5-(1-methylcyclopropyl)isoxazol-3-ylamino)-2-oxoethyl)phenyl)pyridin-2-aminium methanesulfonate], the Kd is at most 1 nM on FLT3 kinase, at most 1 nM on KIT kinase and at most 10 nM at CSF-1R kinase. In the assay with MV4-11 cells, this molecule yielded a half-maximal inhibitory concentration (IC50) of 1 to 10 nM. The “Kinase specificty: S(10)-386 panel” value in assay [1] is reported as “A (A≦0.1)”.
As for `CC(C)(F)c1cc(NC(=O)Cc2ccc(-c3ccc(N)nc3)cc2)on1.CS(=O)(=O)O` [Example 101, 5-(4-(2-(3-(2-fluoropropan-2-yl)isoxazol-5-ylamino)-2-oxoethyl)phenyl)pyridin-2-aminium methanesulfonate], the Kd at FLT3 kinase is at most 1 nM; on KIT kinase, at most 1 nM; at CSF-1R kinase it was at most 10 nM. For the same molecule, the half-maximal inhibitory concentration (IC50) in the assay on MV4-11 cells fell in the range of 1 to 10 nM. Besides, the “Kinase specificty: S(10)-386 panel” value in assay [1] is given as “A (A≦0.1)”.
In the case of `CC(=O)O.CC1(c2cc(NC(=O)Cc3ccc(-c4ccc(N)nc4)cc3)no2)CC1(F)F` (stereo not drawn) [Example 102, 5-(4-(2-((5-(2,2-difluoro-1-methylcyclopropyl)isoxazol-3-yl)amino)-2-oxoethyl)phenyl)pyridin-2-aminium acetate], the Kd on FLT3 kinase was at most 1 nM; at KIT kinase, 1 to 10 nM; on CSF-1R kinase, at most 10 nM. Further, the IC50 with MV4-11 cells is at most 1 nM. Moreover, the “Kinase specificty: S(10)-386 panel” value in assay [1] is recorded as “B (0.1<B≦0.2 nM)”.
Regarding `CC(=O)O.Nc1ccc(-c2ccc(CC(=O)Nc3cc(C4(CF)CC4)on3)cc2)cn1` [Example 103, 5-(4-(2-((5-(1-(fluoromethyl)cyclopropyl)isoxazol-3-yl)amino)-2-oxoethyl)phenyl)pyridin-2-aminium acetate], the values for the Kd at FLT3 kinase, on KIT kinase and at CSF-1R kinase were at most 1 nM, at most 1 nM and at most 10 nM, respectively. For the same molecule, in the assay with MV4-11 cells, the IC50 is at most 1 nM. The “Kinase specificty: S(10)-386 panel” value in assay [1] is listed as “A (A≦0.1)”.
Turning to `CC1(c2cc(NC(=O)Nc3ccc(-c4ccc(N)nc4)cn3)no2)CC1.CS(=O)(=O)O` [Example 104, 6′-(3-(5-(1-methylcyclopropyl)isoxazol-3-yl)ureido)-3,3′-bipyridin-6-aminium methanesulfonate], the Kd at FLT3 kinase is at most 1 nM; on KIT kinase, at most 1 nM; on CSF-1R kinase, at most 10 nM. This molecule returned an IC50 with MV4-11 cells of 10 to 100 nM. For the same molecule, the “Kinase specificty: S(10)-386 panel” value in assay [1] is on record as “A (A≦0.1)”.
As to `CC(C)(C)c1cc(NC(=O)Cc2ccc(-c3ccc(NCCN4CCOCC4)nc3)cc2)no1.CS(=O)(=O)O` [Example 105, 5-(4-(2-(5-tert-butylisoxazol-3-ylamino)-2-oxoethyl)phenyl)-N-(2-morpholinoethyl)pyridin-2-aminium methanesulfonate], the dissociation constant (Kd) was at most 1 nM at FLT3 kinase, at most 1 nM at KIT kinase and at most 10 nM on CSF-1R kinase. The same molecule returned an IC50 in the assay on MV4-11 cells of 1 to 10 nM. For the same molecule, in assay [1], the “Kinase specificty: S(10)-386 panel” value is “B (0.1<B≦0.2 nM)”.
As for `CC1(c2cc(NC(=O)Nc3ccc(-c4ccc(N)nc4)cc3)no2)CC1.CS(=O)(=O)O` [Example 106, 5-(4-(3-(5-(1-methylcyclopropyl)isoxazol-3-yl)ureido)phenyl)pyridin-2-aminium methanesulfonate], the figures for the equilibrium dissociation constant (Kd) at FLT3 kinase, on KIT kinase and at CSF-1R kinase were at most 1 nM, at most 1 nM and at most 10 nM, respectively. Also, in the assay on MV4-11 cells, the IC50 was in the range of 1 to 10 nM. In addition, in assay [1], the “Kinase specificty: S(10)-386 panel” value was “A (A≦0.1)”.
For the molecule `CC(C)(C)c1cc(NC(=O)Nc2ccc(-c3ccc(NCCN4CCC(F)(F)CC4)nc3)cc2)no1.CS(=O)(=O)O` [Example 107, 1-(2-((5-(4-(3-(5-(tert-butyl)isoxazol-3-yl)ureido)phenyl)pyridin-2-yl)amino)ethyl)-4,4-difluoropiperidin-1-ium methanesulfonate], the Kd on FLT3 kinase was at most 1 nM; on KIT kinase, 1 to 10 nM; on CSF-1R kinase, at most 10 nM. Moreover, the concentration for half-maximal inhibition (IC50) in the assay with MV4-11 cells lay within 1 to 10 nM. Also, in assay [1], the “Kinase specificty: S(10)-386 panel” value is recorded as “A (A≦0.1)”.
`CC(C)(C)c1cc(NC(=O)Cc2ccc(-c3ccc(NCCN4CCC(F)(F)CC4)nc3)cc2)no1.CS(=O)(=O)O` [Example 108, 1-(2-(5-(4-(2-(5-tert-butylisoxazol-3-ylamino)-2-oxoethyl)phenyl)pyridin-2-ylamino)ethyl)-4,4-difluoropiperidinium methanesulfonate]: the dissociation constant Kd on FLT3 kinase is at most 1 nM; at KIT kinase it was 1 to 10 nM; on CSF-1R kinase it was at most 10 nM. The IC50 in the assay with MV4-11 cells is 1 to 10 nM. Further, in assay [1], the “Kinase specificty: S(10)-386 panel” value is recorded as “A (A≦0.1)”.
As for `CC(C)(c1cc(NC(=O)Cc2ccc(-c3ccc(NCCN4CCOCC4)nc3)cc2)no1)C(F)(F)F.CS(=O)(=O)O` [Example 109, 4-(2-(5-(4-(2-oxo-2-(5-(1,1,1-trifluoro-2-methylpropan-2-yl)isoxazol-3-ylamino)ethyl)phenyl)pyridin-2-ylamino)ethyl)morpholin-4-ium methanesulfonate], the dissociation constant (Kd) was at most 1 nM at FLT3 kinase, 1 to 10 nM at KIT kinase and at most 10 nM at CSF-1R kinase. In the assay on MV4-11 cells, this molecule yielded an IC50 of at most 1 nM. Besides, the “Kinase specificty: S(10)-386 panel” value in assay [1] is recorded as “B (0.1<B≦0.2 nM)”.
Turning to `CNc1ccc(-c2ccc(CC(=O)Nc3cc(C(C)(C)C)on3)cc2)cn1.CS(=O)(=O)O` [Example 110, 5-(4-(2-(5-tert-butylisoxazol-3-ylamino)-2-oxoethyl)phenyl)-N-methylpyridin-2-aminium methanesulfonate], the Kd at FLT3 kinase was at most 1 nM; at KIT kinase it was 1 to 10 nM; on CSF-1R kinase, at most 10 nM. Besides, the IC50 in the assay on MV4-11 cells was at most 1 nM. In addition, in assay [1], the “Kinase specificty: S(10)-386 panel” value was “B (0.1<B≦0.2 nM)”.
Take `CCNc1ccc(-c2ccc(CC(=O)Nc3cc(C(C)(C)C)on3)cc2)cn1.CS(=O)(=O)O` [Example 111, 5-(4-(2-(5-tert-butylisoxazol-3-ylamino)-2-oxoethyl)phenyl)-N-ethylpyridin-2-aminium methanesulfonate]: the Kd is at most 1 nM at FLT3 kinase, at most 1 nM at KIT kinase and at most 10 nM at CSF-1R kinase. In addition, the IC50 in the assay with MV4-11 cells was at most 1 nM. Further, the “Kinase specificty: S(10)-386 panel” value in assay [1] is “A (A≦0.1)”.

The record behind these values is patent US20130035326A1 (AMBIT BIOSCIENCES CORPORATION, priority 2009, published 2013).
